Results as given in US5972980A, “Method for treating and preventing inflammation and atherosclerosis” (Warner-Lambert Company, priority 1999, dated 1999).
Read-outs that look alike come from different tables or passages of the source.

Tests used:
[1] = molecular target: T1, rabbit reticulocyte 15-LO (Oryctolagus cuniculus, UniProt P12530); test: 15-LO inhibition, rabbit reticulocyte 15-LO with linoleic acid substrate, HPLC method of Auerbach et al.; assay type: biochemical
T1 construct: rabbit reticulocyte 15-LO; from tissue; host or cells: rabbit reticulocytes
T1 sequence (P12530 1-663): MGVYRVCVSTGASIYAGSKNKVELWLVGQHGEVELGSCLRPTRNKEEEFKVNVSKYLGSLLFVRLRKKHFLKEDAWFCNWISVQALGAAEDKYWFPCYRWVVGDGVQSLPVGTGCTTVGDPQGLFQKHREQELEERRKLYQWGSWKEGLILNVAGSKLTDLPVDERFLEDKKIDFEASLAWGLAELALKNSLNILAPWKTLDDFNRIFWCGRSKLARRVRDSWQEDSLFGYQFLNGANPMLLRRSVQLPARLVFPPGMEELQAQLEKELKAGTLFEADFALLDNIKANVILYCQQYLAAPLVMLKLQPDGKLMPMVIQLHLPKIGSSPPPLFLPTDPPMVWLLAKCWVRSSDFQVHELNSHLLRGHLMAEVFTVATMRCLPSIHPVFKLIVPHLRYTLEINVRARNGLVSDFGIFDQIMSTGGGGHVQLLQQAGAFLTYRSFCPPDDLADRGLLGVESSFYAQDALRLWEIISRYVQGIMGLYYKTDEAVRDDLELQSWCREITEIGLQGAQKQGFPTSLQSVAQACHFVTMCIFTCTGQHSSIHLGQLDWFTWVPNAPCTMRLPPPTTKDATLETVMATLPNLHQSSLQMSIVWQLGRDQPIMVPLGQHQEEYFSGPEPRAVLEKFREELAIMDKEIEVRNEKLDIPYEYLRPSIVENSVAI
Procedure: Two in vitro assays were utilized, both utilizing rabbit reticulocyte 15-LO, and linoleic acid as substrate, to enzymatically produce a peroxide oxidation product known as 13(S)-HPODE. N-Benzoyl leucomethylene blue was utilized as a calorimetric reagent for detection and quantification of the peroxide formation. Also, HPLC was utilized to quantify the oxidation following incubation at 4° C. for 10 minutes.

5-LO enzyme = molecular target: T2, 5-LO enzyme (Homo sapiens, UniProt P09917); test: 5-LO enzyme inhibition; assay type: biochemical
T2 sequence (P09917 1-674): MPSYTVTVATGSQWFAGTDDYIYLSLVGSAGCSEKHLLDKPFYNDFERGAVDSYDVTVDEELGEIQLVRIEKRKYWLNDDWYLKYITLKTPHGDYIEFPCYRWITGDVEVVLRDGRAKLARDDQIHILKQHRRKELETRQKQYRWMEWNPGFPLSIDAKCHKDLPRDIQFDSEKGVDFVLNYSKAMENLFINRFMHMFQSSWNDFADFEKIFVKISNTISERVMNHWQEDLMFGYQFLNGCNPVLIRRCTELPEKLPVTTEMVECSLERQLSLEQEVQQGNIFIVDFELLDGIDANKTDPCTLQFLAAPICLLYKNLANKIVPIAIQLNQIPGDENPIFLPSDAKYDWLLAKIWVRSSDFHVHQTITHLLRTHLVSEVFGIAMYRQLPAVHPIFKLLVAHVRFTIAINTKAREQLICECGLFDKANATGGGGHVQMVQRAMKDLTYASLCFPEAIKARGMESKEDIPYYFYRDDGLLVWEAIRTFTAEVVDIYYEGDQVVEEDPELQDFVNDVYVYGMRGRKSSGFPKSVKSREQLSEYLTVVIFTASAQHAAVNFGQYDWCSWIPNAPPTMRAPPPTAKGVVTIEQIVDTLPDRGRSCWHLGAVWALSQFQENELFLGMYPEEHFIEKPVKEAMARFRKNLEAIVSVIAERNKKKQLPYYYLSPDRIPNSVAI

[2] = tested on: atherosclerotic lesions in cholesterol-fed New Zealand White rabbits; test: Atherosclerosis in cholesterol-fed rabbits, 12-week study (aortic lesion coverage, aortic cholesterol content); assay type: in vivo, rabbit; conditions: 350 mg/kg/day in food, 12 weeks
Description: As further evidence of 15-LO inhibitors being effective to prevent and treat inflammation and atherosclerosis in animals, one representative compound has been extensively evaluated in cholesterol-fed rabbits over a 12-week period.
Specific pathogen-free New Zealand White rabbits (≈2.5 kg) were obtained from Myrtle's Rabbitry (Thompson Station, Tenn.). The animals were fed a standard laboratory diet (Ralston Purina, St. Louis, Mo.) and were allowed to become acclimatized for 7 days before initiation of the study, at which time two groups of rabbits (n=10 each) were begun on a diet enriched with cholesterol (0.25% wt/wt), peanut oil (3% wt/wt), and coconut oil (3% wt/wt), with a small amount of applesauce mixed into the food to enhance palatability. This diet was designed to produce a modest hypercholesterolemic response. The control group received no additional treatment. […] Rabbits were permitted access to 40 g of food at ≈12 hour intervals via automated feeders, and diet intake was monitored every day such that the animals received 175 mg/kg/bid. Water was available ad libitum. Body weights were measured at regular intervals throughout the 12-week study. Blood samples were obtained at the indicated intervals for determination of hematocrit and plasma lipid concentrations.
Rabbits were euthanized by an overdose of sodium pentobarbital (150 mg/kg^-1) and exsanguinated via the abdominal aorta. Aortas were removed from the valve to the ileal bifurcation, opened to expose the intima, and photographed with a Polaroid camera. By use of these photographs, the areas of grossly discernible atherosclerosis were manually integrated on a digitizing pad and calculated with SigmaScan (Jandel Scientific). Aortas were visually subdivided into three areas: arch (aortic valve to first intercostal), thoracic aorta (first intercostal to diaphragm area), and abdominal aorta (diaphragm to ileal bifurcation). In addition to extracting aortas, body tissues were surveyed for indications of adverse reactions.
Weighed segments of each aortic region (arch, thoracic, and abdominal) were extracted. Esterified and unesterified cholesterol content of aortic tissue were determined by gas chromatography using 5-α-cholestane as an internal standard.

[3] = Table 2, benzimidazoles, read-out: 15-LO IC50
[4] = Table 2, benzimidazoles, read-out: 5-LO IC50
[5] = read-out: 5-LO inhibitory activity IC50
[6] = Table 1, HPLC method, read-out: 15-LO IC50
[7] = Table 1, read-out: 5-LO (concentration to inhibit 50% of 5-LO activity)
[8] = Table 4, indoles, read-out: 15-LO IC50
[9] = Table 4, indoles, read-out: 5-LO IC50

## COc1ccc(/C=C/C(=O)c2cccs2)cc1 [drawing 31 (R2=H, R3=4-OCH3, Het=drawing 32)]
[1]; Table 3, styrenes, read-out: 15-LO IC50
  IC50: 1.6 µM
5-LO enzyme; Table 3, styrenes, read-out: 5-LO IC50
  IC50: > 10 µM

## Clc1ccc(-c2nc3ccc(Cl)cc3[nH]2)cc1 [2-(4-chlorophenyl)-5-chlorobenzimidazole]
[1]; 15-LO versus 5-LO
  15-LO to 5-LO ratio of activities: greater than 10
[1]; [3]
  IC50: 0.65 µM
5-LO enzyme; [4]
  IC50: > 10 µM
5-LO enzyme; [5]
  IC50: > 10 µM

## c1ccc2c(c1)c[s+]c1c3ccccc3[nH]c21 [drawing 20 (R2=H, R3=H, R4=H, R5=H, R8=H)]
[1]; [6]
  IC50: 3.8 µM
5-LO enzyme; [7]
  IC50: 22 µM

## COc1ccc2[nH]c3c(c2c1)CSc1ccccc1-3
[1]; [6]
  IC50: 0.6 µM
5-LO enzyme; [7]
  IC50: > 10 µM

## c1ccc2c(c1)SCc1c-2[nH]c2ccccc12 [Compound A, 6,11-dihydro[1]benzothiopyrano[4,3-b]-indole]
5-LO enzyme; [7]
  IC50: > 100 µM
5-LO enzyme; [5]
  IC50: > 100 µM
[2]; abdominal (control about 0.6)
  cholesterol esters, abdominal region: no detectable cholesterol esters
[2]; abdominal aorta (control 5%)
  lesion coverage, abdominal region: about 1%
[2]; about the same as control
  unesterified cholesterol, thoracic and abdominal regions: 0.7-0.8 mg/g tissue wet weight
[2]; aortic arch (control about 15%)
  lesion coverage of intima, arch area: no lesion coverage
[2]; arch (control about 1.4)
  unesterified cholesterol, arch region: about 0.8 mg/g
[2]; arch (control about 2)
  cholesterol esters, arch region: no detectable cholesterol esters
[2]; thoracic (control none)
  cholesterol esters, thoracic region: no detectable cholesterol esters
[2]; thoracic aorta
  lesions, thoracic region: No detectable lesions

## c1ccc2c(c1)[nH]c1c3ccccc3[s+]cc21 [drawing 19 (R2=H, R3=H, R4=H, R5=H, R8=H)]
[1]; [6]
  IC50: 1 to 4 µM

## COc1ccc2c(c1)[nH]c1c3ccccc3[s+]cc21
[1]; [6]
  IC50: 26 µM

## Clc1ccc2[nH]c(-c3ccccc3)nc2c1
[1]; [3]
  IC50: 0.7 µM
5-LO enzyme; [4]
  IC50: > 10 µM

## Clc1ccc2c(c1)Nc1c(ccc3ccccc13)S2
[1]; Table 5, read-out: 15-LO IC50
  IC50: 2 µM
5-LO enzyme; Table 5, read-out: 5-LO IC50
  IC50: > 30 µM

## CCCCCC#CCC#CCC#CCC#CCCCC(=O)O [CH3 (CH2)3 (CH2 --C≡C--)4 (CH2)3 --COOH]
[1]; Table 5, read-out: 15-LO IC50
  IC50: 0.75 µM
5-LO enzyme; Table 5, read-out: 5-LO IC50
  IC50: > 10 µM

## COc1ccc2c3c([nH]c2c1)-c1ccccc1SC3
[1]; [6]
  IC50: 4.5 µM
5-LO enzyme; [7]
  IC50: > 50 µM

## O=C(Cc1c[nH]c2ccccc12)Nc1ccccc1
[1]; [8]
  IC50: 1.5 µM
5-LO enzyme; [9]
  IC50: > 10 µM

## COc1ccc2[nH]c3c4ccccc4ncc3c2c1
[1]; [6]
  IC50: > 25 µM

## Cc1ccc2c(c1)[s+]cc1c3ccccc3[nH]c21 [drawing 19 (R2=H, R3=H, R4=H, R5=CH3, R8=H)]
[1]; [6]
  IC50: 1 to 4 µM

## Cc1[s+]c2ccccc2c2[nH]c3ccccc3c12 [drawing 19 (R2=H, R3=H, R4=H, R5=H, R8=CH3)]
[1]; [6]
  IC50: > 25 µM

## c1csc(-c2csc(-c3nc4ccccc4[nH]3)n2)c1 [drawing 26 (R2=H, R3=H, R10=H, R11=drawing 27)]
[1]; [3]
  IC50: 1.5 µM
5-LO enzyme; [4]
  IC50: > 10 µM

## O=[N+]([O-])c1ccc2[s+]cc3c4ccccc4[nH]c3c2c1 [drawing 19 (R2=H, R3=H, R4=NO2, R5=H, R8=H)]
[1]; [6]
  IC50: 0.48 µM
5-LO enzyme; [7]
  IC50: > 10 µM

## c1ccc2c(c1)ccc1c3ccccc3[nH]c21
[1]
  IC50: 1.5 µM
5-LO enzyme; Table 5, read-out: 5-LO IC50
  IC50: > 10 µM

## Clc1ccc2[s+]cc3c4ccccc4[nH]c3c2c1 [drawing 19 (R2=H, R3=H, R4=Cl, R5=H, R8=H)]
[1]; [6]
  IC50: 12 µM

## O=C(Nc1cccc(Cl)c1)Sc1c[nH]c2ccccc12
[1]; [8]
  IC50: 4 µM
5-LO enzyme; [9]
  IC50: > 10 µM

## COc1ccc2[nH]c3c(c2c1)COc1ccccc1-3
[1]; [6]
  IC50: 4 µM
5-LO enzyme; [7]
  IC50: > 50 µM

## c1ccc2c(c1)[nH]c1c3cc4c(cc3[s+]cc21)CCCC4
[1]; [6]
  IC50: 0.5 to 2 µM
5-LO enzyme; [7]
  IC50: > 32 µM

## COc1ccc2[nH]c3c(c2c1)CCc1ccccc1-3
[1]; [6]
  IC50: > 25 µM

## Cc1ccc2[s+]cc3c4ccccc4[nH]c3c2c1 [drawing 19 (R2=H, R3=H, R4=CH3, R5=H, R8=H)]
[1]; [6]
  IC50: 1.9 µM

## COc1ccc2[nH]c3c4ccccc4[s+]cc3c2c1
[1]; [6]
  IC50: 0.7 µM
5-LO enzyme; [7]
  IC50: > 9.6 µM
